Test results: US20260092061A1, “COMPOUNDS FOR TARGETED PROTEIN DEGRADATION” (Amphista Therapeutics Limited, priority 2022, published 2026)

Experiments:
BRD9 [1] = target: T1, BRD9 (Homo sapiens, UniProt Q9H8M2); assay: Degradation of BRD9 (IF), immunofluorescence in MV4-11 cells, 24 hours (Assay Protocol 2); assay type: cell-based; design: A suspension of MV4-11 cells (ATCC CRL-9591) was prepared; host or cells: MV4-11; conditions: BRD9 degradation; for DC50: Assay protocol 2, read-out: DC50; for Dmax: MV4-11, Assay protocol 2, read-out: Dmax
T1 sequence (Q9H8M2 1-597): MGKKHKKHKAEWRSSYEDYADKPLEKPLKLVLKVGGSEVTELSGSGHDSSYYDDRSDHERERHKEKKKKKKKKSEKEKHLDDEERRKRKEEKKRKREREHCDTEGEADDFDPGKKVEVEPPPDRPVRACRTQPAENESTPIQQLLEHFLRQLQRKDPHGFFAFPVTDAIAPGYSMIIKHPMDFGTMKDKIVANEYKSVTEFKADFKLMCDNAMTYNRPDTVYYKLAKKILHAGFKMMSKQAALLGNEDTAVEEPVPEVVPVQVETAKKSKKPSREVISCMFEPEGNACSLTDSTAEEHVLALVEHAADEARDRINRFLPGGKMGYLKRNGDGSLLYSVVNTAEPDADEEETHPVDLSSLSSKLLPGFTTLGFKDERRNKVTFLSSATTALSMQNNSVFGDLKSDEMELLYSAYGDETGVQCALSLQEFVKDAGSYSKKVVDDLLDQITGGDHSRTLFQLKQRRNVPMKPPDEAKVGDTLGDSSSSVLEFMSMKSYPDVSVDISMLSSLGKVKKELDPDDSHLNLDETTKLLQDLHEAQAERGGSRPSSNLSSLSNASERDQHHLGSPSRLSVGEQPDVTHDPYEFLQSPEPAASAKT
How it was run: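 % BRD9 remaining, scaled between DMSO (high) and 100 nM CFT-8634 (low) control wells, derives from mean Alexa 647 contrast in central nuclei by high-content imaging. MV4-11 cells had 24 h compound exposure at 37° C. before PFA fixation, Triton permeabilisation and anti-BRD9 E4Q3F immunostaining.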

BRD9 [2] = target: T1, BRD9; assay: BRD9 degradation, HiBiT-BRD9 KI HEK293 (LgBiT) cells, NanoGlo Lytic Endpoint assay (Assay Protocol 1); assay type: cell-based; conditions: Assay protocol 1, BRD9 degradation; for DC50: read-out: DC50; for Dmax: HEK293, read-out: Dmax
How it was run: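 HiBiT-tagged BRD9 knock-in HEK293 (LgBiT) cells exposed to compounds for 6 h at 37 °C, 5% CO2. Residual BRD9 measured by HiBiT lytic luminescence. % BRD9 remaining normalised to DMSO-treated cells (high) and no-cell wells (low).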

For `COc1cc(-c2cn(C)c(=O)c(C)c2C)cc(OC)c1CN1CCN(Cc2cccc3c2CCN(C(=O)/C(C#N)=C/C24CC(C2)C4)C3C)CC1` (mixture of isomers) [Compound B45, (E/Z)-3-(bicyclo[1.1.1]pentan-1-yl)-2-(5-((4-(2,6-dimethoxy-4-(1,4,5-trimethyl-6-oxo-1,6-dihydropyridin-3-yl)benzyl)piperazin-1-yl)methyl)-1-methyl-1,2,3,4-tetrahydroisoquinoline-2-carbonyl)acrylonitrile], the DC50 (BRD9 [1]) was less than 1.25 nM, the Dmax (BRD9 [1]) was greater than 75% and the DC50 (BRD9 [2]) was less than 1.25 nM. For the same compound, the Dmax (BRD9 [2]) was greater than 75%.
For `COc1cc(-c2cn(C)c(=O)c(C)c2C)cc(OC)c1C(=O)N1CCN(Cc2cccc(C3CCCN3C(=O)/C(C#N)=C/C(C)(C)C)c2)CC1` (mixture of isomers) [Compound B46, (E/Z)-2-(2-(3-((4-(2,6-dimethoxy-4-(1,4,5-trimethyl-6-oxo-1,6-dihydropyridin-3-yl)benzoyl)piperazin-1-yl)methyl)phenyl)pyrrolidine-1-carbonyl)-4,4-dimethylpent-2-enenitrile], the DC50 (BRD9 [1]) was 1.25 to 10 nM, the Dmax (BRD9 [1]) was greater than 75% and the DC50 (BRD9 [2]) was 10 to 25 nM. It also gave a Dmax (BRD9 [2]) greater than 75%.
Compound `COc1cc(-c2cn(C)c(=O)c(C)c2C)cc(OC)c1CN1CCN(Cc2cccc3c2CCN(C(=O)/C(C#N)=C/C(C)(C)C)C3C)C2(CC2)C1` (mixture of isomers) [Compound B47, (E/Z)-2-(5-((7-(2,6-dimethoxy-4-(1,4,5-trimethyl-6-oxo-1,6-dihydropyridin-3-yl)benzyl)-4,7-diazaspiro[2.5]octan-4-yl)methyl)-1-methyl-1,2,3,4-tetrahydroisoquinoline-2-carbonyl)-4,4-dimethylpent-2-enenitrile] has a DC50 (BRD9 [1]) of less than 1.25 nM, a Dmax (BRD9 [1]) greater than 75% and a DC50 (BRD9 [2]) of less than 1.25 nM. The Dmax (BRD9 [2]) was greater than 75%.
In the case of `COc1cc(-c2cn(C)c(=O)c(C)c2C)cc(OC)c1CN1CCN(Cc2cccc3c2CCN(C(=O)/C(C#N)=C/c2ncccc2C(F)(F)F)C3C)CC1` (mixture of isomers) [Compound B49, (E/Z)-2-(5-((4-(2,6-dimethoxy-4-(1,4,5-trimethyl-6-oxo-1,6-dihydropyridin-3-yl)benzyl)piperazin-1-yl)methyl)-1-methyl-1,2,3,4-tetrahydroisoquinoline-2-carbonyl)-3-(3-(trifluoromethyl)pyridin-2-yl)acrylonitrile], the DC50 (BRD9 [1]) is reported as 10 to 25 nM, the Dmax (BRD9 [1]) is reported as 40 to 70% and the DC50 (BRD9 [2]) is reported as less than 1.25 nM. The Dmax (BRD9 [2]) was 40 to 70%.
Work on `COc1cc(-c2cn(C)c(=O)c(C)c2C)cc(OC)c1CN1CCN(Cc2cccc3c2CCN(C(=O)/C(C#N)=C/c2cc(C(F)(F)F)ccn2)C3C)CC1` (mixture of isomers) [Compound B50, (E/Z)-2-(5-((4-(2,6-dimethoxy-4-(1,4,5-trimethyl-6-oxo-1,6-dihydropyridin-3-yl)benzyl)piperazin-1-yl)methyl)-1-methyl-1,2,3,4-tetrahydroisoquinoline-2-carbonyl)-3-(4-(trifluoromethyl)pyridin-2-yl)acrylonitrile] yielded a DC50 (BRD9 [1]) of 10 to 25 nM, a Dmax (BRD9 [1]) greater than 75% and a DC50 (BRD9 [2]) of less than 1.25 nM. For the same compound, the Dmax (BRD9 [2]) was 70 to 75%.
Work on `COc1cccnc1/C=C(\C#N)C(=O)N1CCc2c(CN3CCN(Cc4c(OC)cc(-c5cn(C)c(=O)c(C)c5C)cc4OC)CC3)cccc2C1C` (mixture of isomers) [Compound B51, (E/Z)-2-(5-((4-(2,6-dimethoxy-4-(1,4,5-trimethyl-6-oxo-1,6-dihydropyridin-3-yl)benzyl)piperazin-1-yl)methyl)-1-methyl-1,2,3,4-tetrahydroisoquinoline-2-carbonyl)-3-(3-methoxypyridin-2-yl)acrylonitrile] yielded a Dmax (BRD9 [1]) of 25 to 40%, a DC50 (BRD9 [2]) of 1.25 to 10 nM and a Dmax (BRD9 [2]) of 40 to 70%.
Compound `COc1ccnc(/C=C(\C#N)C(=O)N2CCc3c(CN4CCN(Cc5c(OC)cc(-c6cn(C)c(=O)c(C)c6C)cc5OC)CC4)cccc3C2C)c1` (mixture of isomers) [Compound B52, (E/Z)-2-(5-((4-(2,6-dimethoxy-4-(1,4,5-trimethyl-6-oxo-1,6-dihydropyridin-3-yl)benzyl)piperazin-1-yl)methyl)-1-methyl-1,2,3,4-tetrahydroisoquinoline-2-carbonyl)-3-(4-methoxypyridin-2-yl)acrylonitrile] has a DC50 (BRD9 [1]) of 25 to 1000 nM, a Dmax (BRD9 [1]) of 40 to 70% and a DC50 (BRD9 [2]) of less than 1.25 nM. The Dmax (BRD9 [2]) was 70 to 75%.
In the case of `COc1ccc(/C=C(\C#N)C(=O)N2CCc3c(CN4CCN(Cc5c(OC)cc(-c6cn(C)c(=O)c(C)c6C)cc5OC)CC4)cccc3C2C)nc1` (mixture of isomers) [Compound B53, (E/Z)-2-(5-((4-(2,6-dimethoxy-4-(1,4,5-trimethyl-6-oxo-1,6-dihydropyridin-3-yl)benzyl)piperazin-1-yl)methyl)-1-methyl-1,2,3,4-tetrahydroisoquinoline-2-carbonyl)-3-(5-methoxypyridin-2-yl)acrylonitrile], the Dmax (BRD9 [1]) is reported as 40 to 70%, the DC50 (BRD9 [2]) is reported as 1.25 to 10 nM and the Dmax (BRD9 [2]) is reported as 40 to 70%.
For `COc1cc(-c2cn(C)c(=O)c(C)c2C)cc(OC)c1CN1CCC(Oc2cccc(C3CCCN3C(=O)/C(C#N)=C/C(C)(C)C)c2)C1` (mixture of isomers) [Compound B54, (E/Z)-2-(2-(3-(((S)-1-(2,6-dimethoxy-4-(1,4,5-trimethyl-6-oxo-1,6-dihydropyridin-3-yl)benzyl)pyrrolidin-3-yl)oxy)phenyl)pyrrolidine-1-carbonyl)-4,4-dimethylpent-2-enenitrile], the DC50 (BRD9 [1]) was less than 1.25 nM, the Dmax (BRD9 [1]) was 70 to 75% and the DC50 (BRD9 [2]) was less than 1.25 nM. The Dmax (BRD9 [2]) was greater than 75%.
`COc1cc(-c2cn(C)c(=O)c(C)c2C)cc(OC)c1CN1CCN(C(=O)c2ccc(C3CCCN3C(=O)/C(C#N)=C/C(C)(C)C)cc2)CC1` (mixture of isomers) [Compound B55, (E/Z)-2-(2-(4-(4-(2,6-dimethoxy-4-(1,4,5-trimethyl-6-oxo-1,6-dihydropyridin-3-yl)benzyl)piperazine-1-carbonyl)phenyl)pyrrolidine-1-carbonyl)-4,4-dimethylpent-2-enenitrile] showed a DC50 (BRD9 [1]) of 25 to 1000 nM, a Dmax (BRD9 [1]) greater than 75% and a DC50 (BRD9 [2]) of 10 to 25 nM. The Dmax (BRD9 [2]) was greater than 75%.
In the case of `COc1cc(-c2cn(C)c(=O)c(C)c2C)cc(OC)c1CN1CC(Oc2ccc3c(c2)CCN(C(=O)/C(C#N)=C/c2cccc(Br)n2)C3C)C1` (mixture of isomers) [Compound B57, (E/Z)-3-(6-bromopyridin-2-yl)-2-(6-((1-(2,6-dimethoxy-4-(1,4,5-trimethyl-6-oxo-1,6-dihydropyridin-3-yl)benzyl)azetidin-3-yl)oxy)-1-methyl-1,2,3,4-tetrahydroisoquinoline-2-carbonyl)acrylonitrile], the DC50 (BRD9 [1]) is reported as less than 1.25 nM, the Dmax (BRD9 [1]) is reported as 40 to 70% and the DC50 (BRD9 [2]) is reported as less than 1.25 nM. For the same compound, the Dmax (BRD9 [2]) was 40 to 70%.
`COc1cc(-c2cn(C)c(=O)c(C)c2C)cc(OC)c1CN1CC2(C1)CN(c1cccc(C3CCCN3C(=O)/C(C#N)=C/C(C)(C)C)c1)C2` (mixture of isomers) [Compound B58, (E/Z)-2-(2-(3-(6-(2,6-dimethoxy-4-(1,4,5-trimethyl-6-oxo-1,6-dihydropyridin-3-yl)benzyl)-2,6-diazaspiro[3.3]heptan-2-yl)phenyl)pyrrolidine-1-carbonyl)-4,4-dimethylpent-2-enenitrile] showed a DC50 (BRD9 [1]) of less than 1.25 nM, a Dmax (BRD9 [1]) of 40 to 70% and a DC50 (BRD9 [2]) of less than 1.25 nM. The Dmax (BRD9 [2]) was 40 to 70%.
